Experimental data from ChEMBL document CHEMBL1151557, “Simplified analogs of himbacine displaying potent binding affinity for muscarinic receptors” (Bioorg Med Chem Lett, 1993).
pKd: −log10 of the molar value.

Columns and labels:
[1] = target: T1, Muscarinic acetylcholine receptor M2 (Rattus norvegicus, UniProt P10980); experiment: Displacement of [3H]QNB from rat brain stem muscarinic receptor 2 (M2)
T1 sequence (P10980 whole entry): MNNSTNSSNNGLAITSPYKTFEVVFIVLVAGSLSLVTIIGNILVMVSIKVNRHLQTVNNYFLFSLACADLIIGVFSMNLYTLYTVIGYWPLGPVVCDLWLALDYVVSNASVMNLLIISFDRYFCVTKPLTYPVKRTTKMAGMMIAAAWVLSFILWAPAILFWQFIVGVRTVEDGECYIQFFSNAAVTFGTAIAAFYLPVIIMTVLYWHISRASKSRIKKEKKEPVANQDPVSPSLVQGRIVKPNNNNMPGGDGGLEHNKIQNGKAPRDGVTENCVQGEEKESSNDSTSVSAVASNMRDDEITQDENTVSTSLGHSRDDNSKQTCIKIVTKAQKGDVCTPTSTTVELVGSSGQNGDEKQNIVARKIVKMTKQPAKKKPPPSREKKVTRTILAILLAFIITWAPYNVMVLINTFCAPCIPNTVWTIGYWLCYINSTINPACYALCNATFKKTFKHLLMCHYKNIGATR

[2] = target: T2, Muscarinic acetylcholine receptor M1 (Homo sapiens, UniProt P11229); experiment: Displacement of [3H]QNB from muscarinic receptor 1 expressed in CHO-K1 cells; format: cell-based
T2 sequence (P11229 whole entry): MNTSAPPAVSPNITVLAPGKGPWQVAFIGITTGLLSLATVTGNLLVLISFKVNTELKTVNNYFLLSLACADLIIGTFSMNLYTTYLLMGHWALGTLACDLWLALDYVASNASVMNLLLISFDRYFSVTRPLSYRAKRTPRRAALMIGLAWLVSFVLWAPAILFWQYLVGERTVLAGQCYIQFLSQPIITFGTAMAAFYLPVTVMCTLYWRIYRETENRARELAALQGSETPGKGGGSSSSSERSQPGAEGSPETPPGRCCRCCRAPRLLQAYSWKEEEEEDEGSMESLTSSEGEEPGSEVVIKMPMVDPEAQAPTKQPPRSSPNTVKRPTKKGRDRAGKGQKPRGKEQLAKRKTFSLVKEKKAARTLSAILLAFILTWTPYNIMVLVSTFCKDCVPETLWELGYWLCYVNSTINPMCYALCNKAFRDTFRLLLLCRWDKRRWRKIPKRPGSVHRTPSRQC

Row | pKd [1] | pKd [2] | Structure (SMILES)
1 | 7.46 | 7.62 | CN1CCCC[C@H]1CC=C1c2ccccc2Cc2ccccc21
2 | 8.12 | 8.30 | CN1CCCCC1CCC=C1c2ccccc2Cc2ccccc21 (stereo not given)
3 | 8.66 | 8.31 | CN1CCCC[C@H]1/C=C/C1c2ccccc2Cc2ccccc21
4 | 7.69 | 8.76 | CN1CCCCC1/C=C/C1c2ccccc2Cc2ccccc21 (racemic)
5 | 8.50 | 8.82 | CN1CCCC[C@@H]1/C=C/C1c2ccccc2Cc2ccccc21
6 | 7.84 | 7.94 | CN1CCCC[C@@H]1CC=C1c2ccccc2Cc2ccccc21
7 | 8.52 | 8.57 | CN1CCCCC1CC=C1c2ccccc2Cc2ccccc21 (racemic)
8 | 7.65 | 8.28 | CN1CCCCC1C/C=C/C1c2ccccc2Cc2ccccc21 (stereo not given)
9 | 6.20 | 6.17 | CN1CCCCC1/C=C/c1c2ccccc2cc2ccccc12 (stereo not given)

Row | Structure (SMILES) | pKd [1] | pKd [2]
10 | C[C@@H]1OC(=O)[C@H]2C[C@H]3CCCC[C@@H]3[C@@H](/C=C/[C@H]3CCC[C@H](C)N3C)[C@@H]12 [HIMBACINE] | 8.04 | 6.77
